We go through 15 compounds from patent US20260078135A1, “POLYCYCLIC QUINAZOLINES FOR INHIBITION OF ERBB2” (Enliven Inc., priority 2022, published 2026).

Experiment [1] has as its target T1, phosphorylated ERBB2 (pERBB2) (Homo sapiens, UniProt P04626).
T1 construct: endogenous in cells; host or cells: BT-474
The experiment in a line: Detection of phosphorylated ERBB2 (pERBB2) by ELISA in BT-474 cells. Format: cell-based. Conditions: four hour incubation. The gist of the method: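 BT-474 cells were treated with compounds (fourfold dilutions, 10 μM to 0.01 nM final) for 4 h at 37 °C, then lysed. pERBB2 in lysates was quantified by ELISA with an HRP anti-phosphotyrosine detection antibody and TMB read at 450 nm; % relative activity was normalized to no-cell and 0.1% DMSO controls.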

For experiment [2], the target named is T2, phosphorylated EGFR (pEGFR) (Homo sapiens, UniProt P00533).
T2 construct: performed to measure phosphorylated EGFR levels using A431 cells (10% FBS); endogenous in cells; host or cells: A431
The experiment in a line: Detection of phosphorylated EGFR (pEGFR) by AlphaLISA in EGF-stimulated A431 cells. Format: cell-based. Conditions: A431 cells (10% FBS), 4 hours incubation, EGF 30 ng/mL for 10 minutes. The gist of the method: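 pEGFR was quantified by AlphaLISA in lysates of A431 cells (10% FBS) given a 10 min pulse of EGF at 30 ng/mL after 4 h compound exposure at 37 °C. IC50 came from a four-parameter fit of % inhibition between DMSO and staurosporine controls.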
Background: In Alpha technology, singlet oxygen from a donor bead excites a nearby acceptor bead.

A further experiment deals with Ba/F3 ERBB2 YVMA (Homo sapiens, UniProt P04626, DUP772-775, cells depend on it). The experiment in a line: Cell viability assay (CellTiter Glo), Ba/F3 cells engineered to express ERBB2 YVMA. Format: cell-based, mouse. The note with it: Ba/F3 cells expressing human ERBB2 YVMA mutant, 72 hours, read-out: Ba/F3 ERBB2 YVMA, IC50. On the procedure:
Cells were treated with compounds, and cell viability was measured as a metric of kinase inhibition.
BT-474, A431, MDA-MB-175VII, NCI-H1781, MCF7, and Ba/F3 cell lines were tested. The Ba/F3 cell line is IL-3-dependent mouse cell line derived from the C3H mouse strain. Ba/F3 cell lines were engineered to express human ERBB2 or EGFR kinases, rendering the cells IL-3 independent. The lines were generated via retroviral transduction utilizing a Moloney murine leukemia virus (MMLV) promoter, and constructs are stably integrated into the cell genome. The sequences of the ERBB2 and EGFR genes used were NCBI Reference Sequences NM_004448.3 and NM_005228.3, respectively.
BT-474, A431, MDA-MB-175VII, NCI-H1781 and MCF7 cells were grown in the appropriate growth medium as described in Table B2 below, and harvested at 50-80% confluence. BT-474, A431, MDA-MB-175VII, NCI-H1781 and MCF7 cells were counted and seeded at 2,000 or 1,500 cells per well in 384-well tissue culture plates (see Table B2). Similarly, Ba/F3 cell lines engineered to express EGFR, ERBB2, or ERBB2 mutants were grown, harvested, counted and seeded at 3000 cells per well in 96-well plates. A subset of wells contained media only (low control, “LC”).
Table B1 provides the growth media and number of cells seeded per well for the each cell line.
Compounds were dissolved in DMSO and serially diluted. Serially-diluted compound or a DMSO only control (high control, “HC”) was added to the plated cells in each well. Compounds were tested at concentrations of about 10 μM to 0.51 nM, using three-fold dilutions. The final proportion of DMSO never exceeded 0.1%.
Plates were placed in a 37° C., 5% CO2 incubator for 72 hours. Plates were then removed from the incubator and equilibrated for 15 minutes at room temperature. 40 μl of CellTiter Glo reagent (Promega) was added to measure the relative level of metabolically active cells by quantifying intracellular ATP concentrations. Plates were incubated for 30 minutes at room temperature, and luminescence was measured. Percent viability was normalized to a vehicle control only using the following formula: % viability=100×(Lumsample−LumLC)/(LumHC−LumLC). Graphical curves were fitted using a nonlinear regression model with a sigmoidal dose response.

Counter-ions that a name gives are not always drawn. Where only a bound is given, the exact number is not on record here.

T1 sequence (P04626 23-1255): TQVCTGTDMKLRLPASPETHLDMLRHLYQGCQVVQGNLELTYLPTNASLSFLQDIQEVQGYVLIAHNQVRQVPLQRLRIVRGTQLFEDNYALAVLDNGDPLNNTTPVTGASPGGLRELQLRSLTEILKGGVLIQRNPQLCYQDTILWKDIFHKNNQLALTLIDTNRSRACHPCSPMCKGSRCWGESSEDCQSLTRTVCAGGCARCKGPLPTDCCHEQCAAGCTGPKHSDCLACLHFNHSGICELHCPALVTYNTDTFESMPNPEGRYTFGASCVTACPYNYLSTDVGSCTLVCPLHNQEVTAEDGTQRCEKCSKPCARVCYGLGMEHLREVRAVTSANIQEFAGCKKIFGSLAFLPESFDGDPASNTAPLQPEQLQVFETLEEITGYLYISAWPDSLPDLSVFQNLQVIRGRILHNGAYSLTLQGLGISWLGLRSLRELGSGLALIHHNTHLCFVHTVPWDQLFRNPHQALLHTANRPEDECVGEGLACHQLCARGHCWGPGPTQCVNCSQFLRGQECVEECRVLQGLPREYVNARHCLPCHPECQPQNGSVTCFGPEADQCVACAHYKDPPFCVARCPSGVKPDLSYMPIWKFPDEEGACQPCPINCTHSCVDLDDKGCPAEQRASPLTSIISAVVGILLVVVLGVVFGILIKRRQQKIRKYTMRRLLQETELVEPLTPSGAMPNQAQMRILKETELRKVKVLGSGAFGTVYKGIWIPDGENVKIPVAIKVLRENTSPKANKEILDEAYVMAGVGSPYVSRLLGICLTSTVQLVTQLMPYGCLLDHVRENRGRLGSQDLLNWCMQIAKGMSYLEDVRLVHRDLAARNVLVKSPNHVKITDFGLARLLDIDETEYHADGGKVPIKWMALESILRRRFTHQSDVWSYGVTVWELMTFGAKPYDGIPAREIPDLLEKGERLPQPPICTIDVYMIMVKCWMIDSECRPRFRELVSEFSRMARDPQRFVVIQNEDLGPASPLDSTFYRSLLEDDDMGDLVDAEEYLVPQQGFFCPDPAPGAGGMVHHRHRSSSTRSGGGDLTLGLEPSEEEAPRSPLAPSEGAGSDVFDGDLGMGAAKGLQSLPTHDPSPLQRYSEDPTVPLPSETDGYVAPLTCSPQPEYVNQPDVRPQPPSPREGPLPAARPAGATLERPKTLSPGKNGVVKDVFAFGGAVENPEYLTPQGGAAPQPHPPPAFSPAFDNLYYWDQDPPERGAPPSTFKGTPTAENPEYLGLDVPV
Ba/F3 ERBB2 YVMA, sequence (P04626 with tags, fused parts or gaps DUP772-775): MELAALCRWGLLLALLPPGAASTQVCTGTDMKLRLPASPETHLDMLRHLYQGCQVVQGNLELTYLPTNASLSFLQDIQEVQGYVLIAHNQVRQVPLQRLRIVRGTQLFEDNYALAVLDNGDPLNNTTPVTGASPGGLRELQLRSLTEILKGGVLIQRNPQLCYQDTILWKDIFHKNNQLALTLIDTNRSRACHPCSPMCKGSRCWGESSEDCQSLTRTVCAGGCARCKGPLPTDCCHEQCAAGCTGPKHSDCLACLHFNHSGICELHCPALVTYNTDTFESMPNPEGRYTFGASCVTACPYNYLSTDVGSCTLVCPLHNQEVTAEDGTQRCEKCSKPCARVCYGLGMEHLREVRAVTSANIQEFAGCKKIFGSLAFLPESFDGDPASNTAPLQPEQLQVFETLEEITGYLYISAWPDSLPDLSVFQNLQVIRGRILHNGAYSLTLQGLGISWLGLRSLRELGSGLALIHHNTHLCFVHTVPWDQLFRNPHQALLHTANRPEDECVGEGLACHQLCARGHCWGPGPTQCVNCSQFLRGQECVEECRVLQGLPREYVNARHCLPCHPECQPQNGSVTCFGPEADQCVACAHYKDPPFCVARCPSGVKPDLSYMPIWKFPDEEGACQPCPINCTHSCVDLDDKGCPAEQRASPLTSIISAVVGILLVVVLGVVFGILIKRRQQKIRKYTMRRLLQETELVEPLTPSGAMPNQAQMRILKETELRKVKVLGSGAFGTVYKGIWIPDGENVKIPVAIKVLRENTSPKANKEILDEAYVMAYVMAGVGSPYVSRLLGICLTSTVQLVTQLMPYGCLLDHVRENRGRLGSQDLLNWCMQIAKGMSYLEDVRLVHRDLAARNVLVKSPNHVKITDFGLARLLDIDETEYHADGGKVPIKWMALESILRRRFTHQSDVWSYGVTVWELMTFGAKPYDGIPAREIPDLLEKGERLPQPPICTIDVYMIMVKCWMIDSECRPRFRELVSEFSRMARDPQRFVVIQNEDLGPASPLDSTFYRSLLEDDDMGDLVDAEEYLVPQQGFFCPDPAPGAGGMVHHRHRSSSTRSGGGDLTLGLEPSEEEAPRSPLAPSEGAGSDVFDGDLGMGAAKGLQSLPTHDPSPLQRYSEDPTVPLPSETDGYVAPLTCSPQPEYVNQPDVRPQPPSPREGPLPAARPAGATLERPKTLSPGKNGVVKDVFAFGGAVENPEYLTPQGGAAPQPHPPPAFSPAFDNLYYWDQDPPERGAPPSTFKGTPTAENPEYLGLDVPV
T2 sequence (P00533 25-1210): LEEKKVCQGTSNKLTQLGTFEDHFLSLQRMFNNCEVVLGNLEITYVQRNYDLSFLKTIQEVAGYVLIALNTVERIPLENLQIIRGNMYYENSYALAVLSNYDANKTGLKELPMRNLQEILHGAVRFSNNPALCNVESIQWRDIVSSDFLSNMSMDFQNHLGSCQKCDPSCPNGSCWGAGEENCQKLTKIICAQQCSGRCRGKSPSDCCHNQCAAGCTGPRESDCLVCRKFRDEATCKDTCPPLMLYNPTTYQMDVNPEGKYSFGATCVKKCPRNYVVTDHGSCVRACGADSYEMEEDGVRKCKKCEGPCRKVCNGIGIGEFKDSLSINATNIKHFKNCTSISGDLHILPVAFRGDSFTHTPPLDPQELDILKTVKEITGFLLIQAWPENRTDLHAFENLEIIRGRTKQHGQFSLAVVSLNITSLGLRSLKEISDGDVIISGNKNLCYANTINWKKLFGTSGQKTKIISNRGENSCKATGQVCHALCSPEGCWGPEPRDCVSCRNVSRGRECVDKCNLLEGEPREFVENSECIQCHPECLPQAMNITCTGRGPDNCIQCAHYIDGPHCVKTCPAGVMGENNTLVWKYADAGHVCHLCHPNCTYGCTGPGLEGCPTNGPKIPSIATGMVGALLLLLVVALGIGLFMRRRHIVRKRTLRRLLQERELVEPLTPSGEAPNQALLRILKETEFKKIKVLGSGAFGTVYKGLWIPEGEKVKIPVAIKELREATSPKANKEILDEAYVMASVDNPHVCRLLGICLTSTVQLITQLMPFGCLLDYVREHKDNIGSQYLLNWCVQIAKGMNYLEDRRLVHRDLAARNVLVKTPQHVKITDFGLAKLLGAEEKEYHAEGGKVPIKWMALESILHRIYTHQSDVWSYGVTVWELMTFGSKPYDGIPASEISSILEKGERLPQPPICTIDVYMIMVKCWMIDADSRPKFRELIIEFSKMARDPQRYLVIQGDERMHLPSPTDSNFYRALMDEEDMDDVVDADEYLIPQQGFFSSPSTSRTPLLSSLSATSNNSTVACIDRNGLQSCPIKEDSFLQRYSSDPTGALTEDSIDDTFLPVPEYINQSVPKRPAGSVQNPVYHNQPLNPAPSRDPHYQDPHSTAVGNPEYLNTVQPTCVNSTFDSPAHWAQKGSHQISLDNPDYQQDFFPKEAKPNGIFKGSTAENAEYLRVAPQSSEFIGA

The IC50 is the concentration that inhibits the measured activity by half. Read a low IC50 as higher potency. As for `Cc1cc(Nc2ncnc3ccc4c(c23)O[C@@H]2CCNC[C@@H]2N4C)ccc1Oc1ccc2c(c1)ncn2C` [Compound 134, (7aS,11aR)-7-methyl-N-(3-methyl-4-((1-methyl-1H-benzo[d]imidazol-5-yl)oxy)phenyl)-7a,8,9,10,11,11a-hexahydro-7H-pyrido[3′,4′:5,6][1,4]oxazino[2,3-f]quinazolin-1-amine], the IC50 in experiment [1] turned out to be 113 nM; in experiment [2], 727 nM. Besides, the GI50 at Ba/F3 ERBB2 YVMA was above 500 nM.
Take `Cc1cc(Nc2ncnc3cnc4c(c23)O[C@H]2CCNC[C@H]2N4C)ccc1Oc1ccc2c(c1)ncn2C` [Compound 132, (7aR,11aS)-7-methyl-N-(3-methyl-4-((1-methyl-1H-benzo[d]imidazol-5-yl)oxy)phenyl)-7a,8,9,10,11,11a-hexahydro-7H-pyrido[4,3-b]pyrimido[5′,4′:4,5]pyrido[2,3-e][1,4]oxazin-1-amine]: the IC50 was 307 nM in experiment [1] and above 10000 nM in experiment [2]. Besides, the GI50 on Ba/F3 ERBB2 YVMA is above 500 nM.
Taken in the same sequence, the figures for `Cc1cc(Nc2ncnc3cnc4c(c23)OC[C@@H]2CN(C(=O)/C=C/CN(C)C)CCN42)ccc1Oc1ccn2ncnc2c1` [Compound 112, (S,E)-1-(4-((4-([1,2,4]triazolo[1,5-a]pyridin-7-yloxy)-3-methylphenyl)amino)-6a,7,9,10-tetrahydropyrazino[1,2-d]pyrimido[5′,4′:4,5]pyrido[3,2-b][1,4]oxazin-8(6H)-yl)-4-(dimethylamino)but-2-en-1-one] were 21.8 nM, 1170 nM and 13.3 nM.
The matching figures for `Cc1cc(Nc2ncnc3ccc4c(c23)OC[C@H]2CN4CCN2)ccc1Oc1ccn2ncnc2c1` [Compound 51, (3R)—N-(4-([1,2,4]triazolo[1,5-a]pyridin-7-yloxy)-3-methylphenyl)-3,4,5,6-tetrahydro-2H-3,7-methano[1,4,7]oxadiazonino[2,3-f]quinazolin-13-amine]: 128 nM, above 10000 nM and above 500 nM.
Taken in the same sequence, the figures for `CC#CC(=O)N1CCN2c3cc4c(Nc5ccc(Oc6ccc7c(c6)ncn7C)c(C)c5)ncnc4cc3OC[C@@H]2C1` [Compound 14, (S)-1-(11-((3-methyl-4-((1-methyl-1H-benzo[d]imidazol-5-yl)oxy)phenyl)amino)-1,2,4a,5-tetrahydropyrazino[1′,2′:4,5][1,4]oxazino[3,2-g]quinazolin-3(4H)-yl)but-2-yn-1-one] were 82.8 nM, 545 nM and 14.4 nM.
On to `Cc1cc(Nc2ncnc3ccc4c(c23)OC[C@H]2CN4CCN2C(=O)/C=C/[C@@H](C)N(C)C)c(F)cc1Oc1ccn2ncnc2c1` [Compound 90, (4R,E)-1-((3R)-13-((4-([1,2,4]triazolo[1,5-a]pyridin-7-yloxy)-2-fluoro-5-methylphenyl)amino)-2,3,5,6-tetrahydro-4H-3,7-methano[1,4,7]oxadiazonino[2,3-f]quinazolin-4-yl)-4-(dimethylamino)pent-2-en-1-one], for which the IC50 was 50.4 nM in experiment [1] and above 10000 nM in experiment [2]. Moreover, the GI50 on Ba/F3 ERBB2 YVMA is 28.7 nM.
The matching figures for `Cc1cc(Nc2ncnc3ccc4c(c23)OC[C@@H]2CN(C(=O)/C=C/CN(C)C)CCN42)ccc1Oc1ccn2ncnc2c1` [Compound 19, (S,E)-1-(4-((4-([1,2,4]triazolo[1,5-a]pyridin-7-yloxy)-3-methylphenyl)amino)-6a,7,9,10-tetrahydropyrazino[1′,2′:4,5][1,4]oxazino[2,3-f]quinazolin-8(6H)-yl)-4-(dimethylamino)but-2-en-1-one formate]: 11.1 nM, 679 nM and 5 nM.
Taken in the same sequence, the figures for `Cc1cc(Nc2ncnc3cnc4c(c23)O[C@H]2CCN(C)C[C@H]2N4C)ccc1Oc1ccc2c(c1)ncn2C` [Compound 131, (7aR,11aS)-7,9-dimethyl-N-(3-methyl-4-((1-methyl-1H-benzo[d]imidazol-5-yl)oxy)phenyl)-7a,8,9,10,11,11a-hexahydro-7H-pyrido[4,3-b]pyrimido[5′,4′:4,5]pyrido[2,3-e][1,4]oxazin-1-amine] were 32.7 nM, above 10000 nM and 87.1 nM.
Taken in the same sequence, the figures for `Cc1cc(Nc2ncnc3ccc4c(c23)OC[C@H]2CN4CCN2C(=O)/C=C/CN(C)C)ccc1Oc1ccn2ncnc2c1` [Compound 27, (E)-1-((3R)-13-((4-([1,2,4]triazolo[1,5-a]pyridin-7-yloxy)-3-methylphenyl)amino)-2,3,5,6-tetrahydro-4H-3,7-methano[1,4,7]oxadiazonino[2,3-f]quinazolin-4-yl)-4-(dimethylamino)but-2-en-1-one] were 8.75 nM, 189 nM and 7.69 nM.
Consider `Cc1cc(Nc2ncnc3ccc4c(c23)OC[C@@H]2CN(C(=O)/C=C/CN(C)C)CCN42)ccc1Oc1ccc2c(c1)ncn2C` [Compound 23, (S,E)-4-(dimethylamino)-1-(4-((3-methyl-4-((1-methyl-1H-benzo[d]imidazol-5-yl)oxy)phenyl)amino)-6a,7,9,10-tetrahydropyrazino[1′,2′:4,5][1,4]oxazino[2,3-f]quinazolin-8(6H)-yl)but-2-en-1-one], for which the IC50 in experiment [1] came to 27.4 nM; in experiment [2], 817 nM. In addition, the GI50 at Ba/F3 ERBB2 YVMA turned out to be 13.8 nM.
For `C=CC(=O)N1CCN2c3nc4c(Nc5ccc(Oc6ccn7ncnc7c6)c(C)c5)ncnc4cc3OC[C@@H]2C1` [Compound 1, (S)-1-(11-((4-([1,2,4]triazolo[1,5-a]pyridin-7-yloxy)-3-methylphenyl)amino)-1,2,4a,5-tetrahydropyrazino[1,2-d]pyrimido[4′,5′:5,6]pyrido[3,2-b][1,4]oxazin-3(4H)-yl)prop-2-en-1-one], the IC50 in experiment [1] came out at 5.77 nM; in experiment [2], 84.7 nM. In addition, on Ba/F3 ERBB2 YVMA, the GI50 was 1.6 nM.
Turning to `C=CC(=O)N1CCN2C[C@@H]1COc1c2ccc2ncnc(Nc3ccc(Oc4ccn5ncnc5c4)c(C)c3)c12` [Compound 25, 1-((3R)-13-((4-([1,2,4]triazolo[1,5-a]pyridin-7-yloxy)-3-methylphenyl)amino)-2,3,5,6-tetrahydro-4H-3,7-methano[1,4,7]oxadiazonino[2,3-f]quinazolin-4-yl)prop-2-en-1-one], the IC50 worked out at 11.5 nM in experiment [1] and 1580 nM in experiment [2]. Also, at Ba/F3 ERBB2 YVMA, the GI50 worked out at 15.5 nM.
Taken in the same sequence, the figures for `C=CC(=O)N1CCN2c3ccc4ncnc(Nc5ccc(Oc6ccn7ncnc7c6)c(C)c5)c4c3OC[C@@H]2C1` [Compound 5, (S)-1-(4-((4-([1,2,4]triazolo[1,5-a]pyridin-7-yloxy)-3-methylphenyl)amino)-6a,7,9,10-tetrahydropyrazino[1′,2′:4,5][1,4]oxazino[2,3-f]quinazolin-8(6H)-yl)prop-2-en-1-one] were 7.89 nM, 517 nM and 4.62 nM.
Taken in the same sequence, the figures for `Cc1cc(Nc2ncnc3ccc4c(c23)OC[C@H]2CN4CCN2C(=O)/C=C/[C@@H](C)N(C)C)ccc1Oc1ccn2ncnc2c1` [Compound 88, (4R,E)-1-((3R)-13-((4-([1,2,4]triazolo[1,5-a]pyridin-7-yloxy)-3-methylphenyl)amino)-2,3,5,6-tetrahydro-4H-3,7-methano[1,4,7]oxadiazonino[2,3-f]quinazolin-4-yl)-4-(dimethylamino)pent-2-en-1-one formic acid] were 44.3 nM, 2820 nM and 60.3 nM.
Consider `CN(C)C/C=C/C(=O)N1CCN2c3ccc4ncnc(Nc5cc(F)c(Oc6ccn7ncnc7c6)cc5F)c4c3OC[C@H]2C1` [Compound 97, (R,E)-1-(4-((4-([1,2,4]triazolo[1,5-a]pyridin-7-yloxy)-2,5-difluorophenyl)amino)-6a,7,9,10-tetrahydropyrazino[1′,2′:4,5][1,4]oxazino[2,3-f]quinazolin-8(6H)-yl)-4-(dimethylamino)but-2-en-1-one], for which the IC50 came to 15.2 nM in experiment [1] and 8060 nM in experiment [2]. On Ba/F3 ERBB2 YVMA, the GI50 is 3.6 nM.
